Experimental data as given in ChEMBL document CHEMBL1150170, “An antiplasmodial lignan from Euterpe precatoria” (J Nat Prod, 2002).

Tested on: Plasmodium falciparum
Assay: Antiplasmodial activity against chloroquine-sensitive Plasmodium falciparum 3D7 by [3H]phenylalanine uptake
Format: functional, organism-based

IC50: 12 µM
SMILES: COc1cc([C@@H]2Oc3c(OC)cc(/C=C/COC(=O)c4ccccc4)cc3[C@H]2COC(=O)c2ccccc2)ccc1O (racemic) [DEHYDRODICONIFERYL ALCOHOL DIBENZOATE]
